Among the data in patent US6239151A, “Compounds as inhibitor of tumor necrosis factor alpha release” (Hoffmann-La Roche Inc., priority 1998, dated 2001) are IC50 values, retold here.

This assay concerns LPS-induced TNF-α release (THP1 cells). The experiment in a line: Inhibition of LPS-induced TNF-α release from THP1 cells (ELISA). Format: cell-based. The following applies: Homo sapiens, THP-1, LPS 2 mg/ml, 3 hours at 37° C., TNF-α by ELISA, read-out: IC50 (concentration giving 50% inhibition of LPS-induced TNF-α release). The method, then: THP1 cells were cultivated in RPMI 1640 medium supplemented with antibiotics and 10% foetal calf serum, harvested by centrifugation and diluted to 5×10^5 cells/ml in the above medium supplemented with 20 mM HEPES buffer. Aliquots ([…]) of the cell suspension were plated out on 96 well culture plates and incubated for 0.5 hour at 37° C. prior to the addition of the test compounds. The latter were dissolved in dimethyl sulphoxide (DMSO) to a stock concentration of 1.2 mM which was diluted with phosphate buffered saline/10% DMSO solution to provide test compounds in final concentrations of 10^-9 to 10^-5 M, with each concentration being tested in duplicate. The cells were incubated with the test compounds for 0.5 hour at 37° C., LPS (bacterial lipopolysaccharide) was then added to a concentration of 2 mg/ml and incubation was continued for 3 hours at 37° C. in an atmosphere containing 5% CO2 and at 95% relative humidity. After centrifugation at 260 g for 10 minutes an aliquot of each supernatant was removed and the amount of TNF-α was estimated by ELISA (R & D Systems Europe Ltd., Abingdon, England). The concentration of test compound which brings about 50% inhibition of LPS-induced TNF-α release (IC50) was computed from the dose-response curve.
The results obtained in the foregoing test with representative compounds of formula I are compiled in the following Table.
(In an ELISA, binding on a coated surface is turned into a signal by an enzyme label.)
On to `CC(C)C[C@@H](C(=O)NN(CC(C)C)C(=O)C(C)O)[C@H](C/C=C/c1ccccc1)C(=O)NO` (mixture of isomers) [B, (E)-2(R)-[1(S)-(Hydroxycarbamoyl)-4-phenyl-3-butenyl]-2'-(2(RS)-hydroxypropionyl)-2'-isobutyl-4-methylvalerohydrazide], for which the IC50 was 589 nM.

Consider `CC(C)C[C@@H](C(=O)NN(CC(C)C)C(=O)[C@@H](C)N)[C@H](C/C=C/c1ccccc1)C(=O)NO` [A, (E)-2'-(D-Alanyl)-2(R)-[1(S)-(hydroxycarbamoyl)-4-phenyl-3-butenyl]-2'-isobutyl-4-methylvalerohydrazide], for which the IC50 amounted to 303 nM.

For `CC(C)C[C@@H](C(=O)NN(CC(C)C)C(=O)Cn1ccnc1)[C@H](C/C=C/c1ccccc1)C(=O)NO` [C, (E)-2(R)-[1(S)-(Hydroxycarbamoyl)-4-phenyl-3-butenyl]-2'-[2-(1-imidazolyl)acetyl]-2'-isobutyl-4-methylvalerohydrazide], the IC50 is 201 nM.

On to `CC(C)C[C@@H](C(=O)NN(CC(C)C)C(=O)C1CCNCC1)[C@H](C/C=C/c1ccccc1)C(=O)NO` [D, (E)-2(R)-[1(S)-(Hydroxycarbamoyl)-4-phenyl-3-butenyl]-2'-isobutyl-4-methyl-2'-[(4-piperidinyl)carbonyl]valerohydrazide], for which the IC50 is 345 nM.
